Laboratory results reported in patent US20230021483A1, “[…] […] METHOD AND CLASSIFICATION OF PHARMACEUTICAL COMPONENTS BY USING TRANSCRIPTOMES” (National Institutes of Biomedical Innovation, Health and …, priority 2016, published 2023).

What was measured:
liver (LV) = test: Whole organ transcriptome (GeneChip microarray) of liver 6 h after adjuvant administration: sDEGs, hierarchical clustering; type: in vivo, C57BL/6 mice; conditions: for Number of gene probes with statistically significant changes (sDEGs), LV, Down / Number of gene probes with statistically significant changes (sDEGs), LV, Up: liver, 6 h after adjuvant; for Number of gene probes with statistically significant changes (sDEGs), LV, Down: fold change <0.667, p<0.01, customized PA call=1; for Number of gene probes with statistically significant changes (sDEGs), LV, Up: fold change >1.5, p<0.01, customized PA call=1; on cluster of strongly responding individual samples in LV (clustering exceptions): key: G1 (interferon signaling); G2 (metabolism of lipids and lipoproteins); G3 (response to stress); G4 (response to wounding); G5 (phosphate-containing compound metabolic process); G6 (phagosome)
[1] = test system: adjuvant-associated biological themes in LV, SP, LN
Excerpt: A defined sets of genes were selected according to specified criteria (e.g., FC, PA-call, threshold values). Their functional enrichment values were then obtained from TargetMine (Chen, Y. A., Tripathi, L. P. & Mizuguchi, K. PloS one 6, e17844 (2011)) (http://targetmine.mizuguchilab.org/) using the API interface. The following resources were used throughout the analysis via TargetMine Interface (GO, GOSlim, Integrated Pathway, KEGG, Reactome, and the NCI pathway). The Holm-Bonferroni method was used for multiple testing corrections.
Whole organ transcriptome data for each organ from each mouse were analyzed as follows to obtain biological themes for individual samples from each adjuvant-administered group of three mice. […] A set of Pj genes was first defined, where eij/ei(c)>2.0. Biological themes enriched within Pj were then identified using TargetMine (Chen, Y. A. et al., PloS one 6, e17844 (2011)) (http://targetmine.mizuguchilab.org/). Tj denote the resulting list of biological themes, with associated p-values from Fischer's exact test.
Next, the biological themes called by all the individual samples in the group were scored as follows. Having obtained three lists (T1, T2 and T3) for a given experimental condition, a consensus list T of themes was created as T={(t1, p1), (t2, p2), . . . }, where ti is a biological theme that appears in all of T1, T2 and T3, and pi is the smallest of the associated p-values. Only the themes with the p-value of <0.05 were included in T.
To summarize the biological themes in T further, a list of terms considered to be associated with adjuvant activity in general was separately prepared. AT={at1, at2, . . . }, where ati is a pre-selected adjuvant-associated term (e.g., “stress” or “cytokine”). Finally, an enrichment score S for an adjuvant-associated term ati was defined as: S(ati)=Σ−log(pj), where the name of tj in T includes a term ati as a substring and pj is the associated p-value.
This scoring scheme summarizes the relative enrichment of pre-selected adjuvant-associated terms in genes responding to each adjuvant in each organ.

K3: B class CpG ODN (ATCGACTCTCGAGCGTTCTC), TLR9 ligand (chemistry not given here)
Number of gene probes with statistically significant changes (sDEGs), LV, Down (liver (LV); i.d. administration): 22 | Number of gene probes with statistically significant changes (sDEGs), LV, Up (liver (LV); i.d. administration): 10 | Number of gene probes with statistically significant changes (sDEGs), LV, Down (liver (LV); i.p. administration): 50 | Number of gene probes with statistically significant changes (sDEGs), LV, Up (liver (LV); i.p. administration): 18 | cluster of strongly responding individual samples in LV (clustering exceptions) (liver (LV); samples D35_ID_x2 and K3_ID_x3 only): G2 | tissue damage-associated annotations (cell death, wounding) in LNs ([1]; LN, i.d., fold change >2): did not induce cell death and wounding in LNs | IFN alpha, GO annotation line 1 of 5 ([1]; LV, ID): 0 | IFN alpha, GO annotation line 2 of 5 ([1]; LV, ID): 0 | IFN alpha: cellular response to interferon-alpha ([1]; LV, ID): 0 | IFN alpha: positive regulation of interferon-alpha production ([1]; LV, ID): 0 | IFN alpha: regulation of interferon-alpha production ([1]; LV, ID): 0 | IFN beta: cellular response to interferon-beta ([1]; LV, ID): 0 | IFN beta: interferon-beta production ([1]; LV, ID): 0 | IFN beta: positive regulation of interferon-beta production ([1]; LV, ID): 0 | IFN beta: regulation of interferon-beta production ([1]; LV, ID): 0 | IFN beta: response to interferon-beta ([1]; LV, ID): 0 | IFN gamma: cellular response to interferon-gamma ([1]; LV, ID): 0 | IFN gamma: interferon-gamma production ([1]; LV, ID): 0 | IFN gamma: regulation of interferon-gamma production ([1]; LV, ID): 0 | IFN gamma: response to interferon-gamma ([1]; LV, ID): 0 | NF-kappa B signaling pathway, GO annotation line 1 of 4 ([1]; LV, ID): 6.19 | NF-kappa B signaling pathway, GO annotation line 2 of 4 ([1]; LV, ID): 0 | NF-kappa B signaling pathway, GO annotation line 3 of 4 ([1]; LV, ID): 0 | NF-kappa B signaling pathway, GO annotation line 4 of 4 ([1]; LV, ID): 0 | TNF signaling pathway ([1]; LV, ID): 14.5 | adaptive immune response, GO annotation line 1 of 5 ([1]; LV, ID): 0 | adaptive immune response, GO annotation line 2 of 5 ([1]; LV, ID): 0 | adaptive immune response, GO annotation line 3 of 5 ([1]; LV, ID): 0 | adaptive immune response, GO annotation line 4 of 5 ([1]; LV, ID): 0 | adaptive immune response, GO annotation line 5 of 5 ([1]; LV, ID): 0 | apoptosis, GO annotation line 1 of 8 ([1]; LV, ID): 15.7 | apoptosis, GO annotation line 2 of 8 ([1]; LV, ID): 10.1 | apoptosis, GO annotation line 3 of 8 ([1]; LV, ID): 10.3 | apoptosis, GO annotation line 4 of 8 ([1]; LV, ID): 0 | apoptosis, GO annotation line 5 of 8 ([1]; LV, ID): 5.99 | apoptosis, GO annotation line 6 of 8 ([1]; LV, ID): 3.19 | apoptosis, GO annotation line 7 of 8 ([1]; LV, ID): 0 | apoptosis, GO annotation line 8 of 8 ([1]; LV, ID): 0 | cell death, GO annotation line 1 of 9 ([1]; LV, ID): 18.3 | cell death, GO annotation line 2 of 9 ([1]; LV, ID): 13.9 | cell death, GO annotation line 3 of 9 ([1]; LV, ID): 14.9 | cell death, GO annotation line 4 of 9 ([1]; LV, ID): 10.5 | cell death, GO annotation line 5 of 9 ([1]; LV, ID): 10.9 | cell death, GO annotation line 6 of 9 ([1]; LV, ID): 7.25 | cell death, GO annotation line 7 of 9 ([1]; LV, ID): 6.67 | cell death, GO annotation line 8 of 9 ([1]; LV, ID): 0 | cell death, GO annotation line 9 of 9 ([1]; LV, ID): 0 | chemokine, GO annotation line 1 of 4 ([1]; LV, ID): 0 | chemokine, GO annotation line 2 of 4 ([1]; LV, ID): 0 | chemokine, GO annotation line 3 of 4 ([1]; LV, ID): 0 | chemokine, GO annotation line 4 of 4 ([1]; LV, ID): 0 | chemotaxis, GO annotation line 1 of 11 ([1]; LV, ID): 0 | chemotaxis, GO annotation line 2 of 11 ([1]; LV, ID): 0 | chemotaxis, GO annotation line 3 of 11 ([1]; LV, ID): 0 | chemotaxis, GO annotation line 4 of 11 ([1]; LV, ID): 0 | chemotaxis, GO annotation line 5 of 11 ([1]; LV, ID): 0 | chemotaxis, GO annotation line 6 of 11 ([1]; LV, ID): 0 | chemotaxis, GO annotation line 7 of 11 ([1]; LV, ID): 0 | chemotaxis, GO annotation line 8 of 11 ([1]; LV, ID): 0 | chemotaxis, GO annotation line 9 of 11 ([1]; LV, ID): 0 | chemotaxis, GO annotation line 10 of 11 ([1]; LV, ID): 0 | chemotaxis, GO annotation line 11 of 11 ([1]; LV, ID): 0 | cytokine, GO annotation line 1 of 17 ([1]; LV, ID): 0 | cytokine, GO annotation line 2 of 17 ([1]; LV, ID): 0 | cytokine, GO annotation line 3 of 17 ([1]; LV, ID): 0 | cytokine, GO annotation line 4 of 17 ([1]; LV, ID): 0 | cytokine, GO annotation line 5 of 17 ([1]; LV, ID): 0 | cytokine, GO annotation line 6 of 17 ([1]; LV, ID): 0 | cytokine, GO annotation line 7 of 17 ([1]; LV, ID): 0 | cytokine, GO annotation line 8 of 17 ([1]; LV, ID): 0 | cytokine, GO annotation line 9 of 17 ([1]; LV, ID): 0 | cytokine, GO annotation line 10 of 17 ([1]; LV, ID): 0 | cytokine, GO annotation line 11 of 17 ([1]; LV, ID): 0 | cytokine, GO annotation line 12 of 17 ([1]; LV, ID): 0 | cytokine, GO annotation line 13 of 17 ([1]; LV, ID): 0 | cytokine, GO annotation line 14 of 17 ([1]; LV, ID): 0 | cytokine, GO annotation line 15 of 17 ([1]; LV, ID): 0 | cytokine, GO annotation line 16 of 17 ([1]; LV, ID): 0 | cytokine, GO annotation line 17 of 17 ([1]; LV, ID): 0 | defense response, GO annotation line 1 of 11 ([1]; LV, ID): 0 | defense response, GO annotation line 2 of 11 ([1]; LV, ID): 0 | defense response, GO annotation line 3 of 11 ([1]; LV, ID): 0 | defense response, GO annotation line 4 of 11 ([1]; LV, ID): 0 | defense response, GO annotation line 5 of 11 ([1]; LV, ID): 0 | defense response, GO annotation line 6 of 11 ([1]; LV, ID): 0 | defense response, GO annotation line 7 of 11 ([1]; LV, ID): 0 | defense response, GO annotation line 8 of 11 ([1]; LV, ID): 0 | defense response, GO annotation line 9 of 11 ([1]; LV, ID): 0 | defense response, GO annotation line 10 of 11 ([1]; LV, ID): 0 | defense response, GO annotation line 11 of 11 ([1]; LV, ID): 0 | immune response, GO annotation line 1 of 8 ([1]; LV, ID): 0 | immune response, GO annotation line 2 of 8 ([1]; LV, ID): 0 | immune response, GO annotation line 3 of 8 ([1]; LV, ID): 0 | immune response, GO annotation line 4 of 8 ([1]; LV, ID): 0 | immune response, GO annotation line 5 of 8 ([1]; LV, ID): 0 | immune response, GO annotation line 6 of 8 ([1]; LV, ID): 0 | immune response, GO annotation line 7 of 8 ([1]; LV, ID): 0 | immune response, GO annotation line 8 of 8 ([1]; LV, ID): 0 | inflammatory response, GO annotation line 1 of 5 ([1]; LV, ID): 0 | inflammatory response, GO annotation line 2 of 5 ([1]; LV, ID): 0 | inflammatory response, GO annotation line 3 of 5 ([1]; LV, ID): 0 | inflammatory response, GO annotation line 4 of 5 ([1]; LV, ID): 0 | inflammatory response, GO annotation line 5 of 5 ([1]; LV, ID): 0 | innate immune response, GO annotation line 1 of 6 ([1]; LV, ID): 0 | innate immune response, GO annotation line 2 of 6 ([1]; LV, ID): 0 | innate immune response, GO annotation line 3 of 6 ([1]; LV, ID): 0 | innate immune response, GO annotation line 4 of 6 ([1]; LV, ID): 0 | innate immune response, GO annotation line 5 of 6 ([1]; LV, ID): 0 | innate immune response, GO annotation line 6 of 6 ([1]; LV, ID): 0 | interleukin-6: interleukin-6 production ([1]; LV, ID): 0 | interleukin-6: positive regulation of interleukin-6 production ([1]; LV, ID): 0 | interleukin-6: regulation of interleukin-6 production ([1]; LV, ID): 0 | interleukin-12: interleukin-12 production ([1]; LV, ID): 0 | interleukin-12: positive regulation of interleukin-12 production ([1]; LV, ID): 0 | interleukin-12: regulation of interleukin-12 production ([1]; LV, ID): 0 | migration, GO annotation line 1 of 10 ([1]; LV, ID): 0 | migration, GO annotation line 2 of 10 ([1]; LV, ID): 0 | migration, GO annotation line 3 of 10 ([1]; LV, ID): 0 | migration, GO annotation line 4 of 10 ([1]; LV, ID): 0 | migration, GO annotation line 5 of 10 ([1]; LV, ID): 0 | migration, GO annotation line 6 of 10 ([1]; LV, ID): 0 | migration, GO annotation line 7 of 10 ([1]; LV, ID): 0 | migration, GO annotation line 8 of 10 ([1]; LV, ID): 0 | migration, GO annotation line 9 of 10 ([1]; LV, ID): 0 | migration, GO annotation line 10 of 10 ([1]; LV, ID): 0 | stress, GO annotation line 1 of 3 ([1]; LV, ID): 12.9 | stress, GO annotation line 2 of 3 ([1]; LV, ID): 0 | stress, GO annotation line 3 of 3 ([1]; LV, ID): 0 | wounding, GO annotation line 1 of 3 ([1]; LV, ID): 0 | wounding, GO annotation line 2 of 3 ([1]; LV, ID): 0 | wounding, GO annotation line 3 of 3 ([1]; LV, ID): 0
